Experimental findings from ChEMBL document CHEMBL1255557, “Heterobiaryl and heterobiaryl ether derived M5 positive allosteric modulators” (Bioorg Med Chem Lett, 2010) are described below.

Structures are written as SMILES. Activity calls are given as the source filed them. The rule behind the calls is not given here.

Format in all cases: functional, cell-based
The target in test [1] is T1, Muscarinic acetylcholine receptor M5 (Homo sapiens) (UniProt P08912).
T1 sequence (whole entry): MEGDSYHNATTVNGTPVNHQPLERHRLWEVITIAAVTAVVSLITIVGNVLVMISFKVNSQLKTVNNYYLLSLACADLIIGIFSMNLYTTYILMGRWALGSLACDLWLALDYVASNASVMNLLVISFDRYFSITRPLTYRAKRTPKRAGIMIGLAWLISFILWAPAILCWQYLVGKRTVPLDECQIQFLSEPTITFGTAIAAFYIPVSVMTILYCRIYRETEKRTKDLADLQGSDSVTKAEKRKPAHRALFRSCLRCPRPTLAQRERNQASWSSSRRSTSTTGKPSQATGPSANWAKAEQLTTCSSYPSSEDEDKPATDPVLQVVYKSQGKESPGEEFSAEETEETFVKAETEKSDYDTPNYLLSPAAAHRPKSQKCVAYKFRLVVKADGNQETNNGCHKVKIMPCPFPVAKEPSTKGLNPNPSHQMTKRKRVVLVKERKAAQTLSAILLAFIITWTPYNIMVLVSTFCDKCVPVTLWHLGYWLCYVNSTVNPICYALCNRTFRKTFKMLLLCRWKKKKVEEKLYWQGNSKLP
As to the kind of experiment: Positive allosteric modulation of muscarinic M5 receptor expressed in CHO cells assessed as potentiation of acetylcholine-induced intracellular calcium mobilization at 10 uM after 1 hr by FLIPR assay.

Test [2] addresses T2, Muscarinic acetylcholine receptor M5 (Homo sapiens, UniProt P08912).
T2 sequence (P08912 whole entry): T1 sequence (whole entry)
Nature of the test: Positive allosteric modulation of muscarinic M5 receptor expressed in CHO cells assessed as effect on acetylcholine-induced intracellular calcium mobilization after 1 hr by FLIPR assay.

Test [3] deals with T1, Muscarinic acetylcholine receptor M5 (Homo sapiens). Nature of the test: Positive allosteric modulation of muscarinic M5 receptor expressed in CHO cells assessed as effect on acetylcholine-induced intracellular calcium mobilization after 1 hr by FLIPR assay relative to acetylcholine.

For `CN(C)CCOc1ccc2c(c1)C(=O)C(=O)N2Cc1ccc(-c2ccccc2)cc1`, the result in test [1] was inactive.
For the compound `O=C1C(=O)N(Cc2ccc(Oc3nccs3)cc2)c2ccc(OC(F)(F)F)cc21`, in test [2], the EC50 is 2.8 µM. Also, the Emax in test [3] was 58%.
With `COc1cccc(COc2ccc3c(c2)C(=O)C(=O)N3Cc2ccc(-c3ccccc3)cc2)c1`, in test [1], the result was inactive.
Same read-out and setting: to `O=C1C(=O)N(Cc2ccc(-c3ccccc3)cc2)c2ccc(OCCN3CCOCC3)cc21` belongs “inactive”.
For `O=C1C(=O)N(Cc2ccc(-c3ccncc3)cn2)c2ccc(OC(F)(F)F)cc21`, in test [2], the 50% effective concentration (EC50) was above 30 µM.
As for `O=C1C(=O)N(Cc2ccc(-c3ccccc3)cc2)c2ccc(OCc3ccccc3F)cc21`, the outcome in test [1] was inactive.
On to `O=C1C(=O)N(Cc2ccc(-c3cccnc3)cc2)c2ccc(OC(F)(F)F)cc21`, for which the EC50 in test [2] worked out at 1.6 µM. For the same compound, the Emax in test [3] was 51%.
Take `O=C1C(=O)N(Cc2ccc(-c3ccncc3)nc2)c2ccc(OC(F)(F)F)cc21`: in test [2], the EC50 turned out to be 4.4 µM. Moreover, the Emax in test [3] turned out to be 50%.
On the same counts, the results for `O=C1C(=O)N(Cc2ccc(-c3cncnc3)cc2)c2ccc(OC(F)(F)F)cc21` are 2.1 µM and 53%.
Turning to `O=C1C(=O)N(Cc2ccc(-c3ccccc3)cc2F)c2ccc(OC(F)(F)F)cc21`, the EC50 in test [2] was 5.9 µM. In test [3], the Emax stood at 63%.
Take `O=C1C(=O)N(Cc2ccc(-c3ccccc3)cc2)c2ccc(OCc3cccc(C(F)(F)F)c3)cc21`: the outcome in test [1] was inactive.
The same measure, in the same setting: to `O=C1C(=O)N(Cc2ccc(-c3ccccc3)cc2)c2ccc(OCC(F)(F)F)cc21` belongs “inactive”.
Take `O=C1C(=O)N(Cc2cccc(Oc3ccccc3)c2)c2ccc(OC(F)(F)F)cc21`: the EC50 in test [2] is above 30 µM.
Regarding `COc1cccc(Oc2ccc(CN3C(=O)C(=O)c4cc(OC(F)(F)F)ccc43)cc2)n1`, the EC50 in test [2] came to 2.2 µM. In test [3], the maximal response (Emax) worked out at 51%.
In the case of `CCOc1ccc2c(c1)C(=O)C(=O)N2Cc1ccc(-c2ccccc2)cc1`, the outcome in test [1] was inactive.
`O=C1C(=O)N(Cc2ccc(-c3ccccc3)cc2)c2ccc(OCCc3ccccc3C(F)(F)F)cc21`: in test [1], the outcome was inactive.
On the same count and under the same terms, the value for `Cc1ccccc1CCOc1ccc2c(c1)C(=O)C(=O)N2Cc1ccc(-c2ccccc2)cc1` was “inactive”.
Same read-out and setting: the value for `CC1CCCN(COc2ccc3c(c2)C(=O)C(=O)N3Cc2ccc(-c3ccccc3)cc2)C1` (centres undefined) was “inactive”.
As for `O=C1C(=O)N(Cc2ccc(Oc3ccccn3)cc2)c2ccc(OC(F)(F)F)cc21`, the half-maximal effective concentration (EC50) in test [2] is 3.2 µM. In addition, the Emax in test [3] was 46%.
In the same order, the values of `O=C1C(=O)N(Cc2ccc(-c3ccncc3)cc2)c2ccc(OC(F)(F)F)cc21` are 2.8 µM and 60%.
Consider `CC(C)COc1ccc2c(c1)C(=O)C(=O)N2Cc1ccc(-c2ccccc2)cc1`, for which the outcome in test [1] was inactive.
Same read-out and setting: to `O=C1C(=O)N(Cc2ccc(-c3ccccc3)cc2)c2ccc(OCc3ccccn3)cc21` belongs “inactive”; to `O=C1C(=O)N(Cc2ccc(-c3ccccc3)cc2)c2ccc(Oc3ccccn3)cc21`, “inactive”.
Still for that read-out and setting: the value for `O=C1C(=O)N(Cc2ccc(-c3ccccc3)cc2)c2ccc(OCCC(F)(F)F)cc21` was “inactive”; that for `O=C1C(=O)N(Cc2ccc(-c3ccccc3)cc2)c2ccc(OCCc3ccccc3F)cc21` was “inactive”; that for `O=C1C(=O)N(Cc2ccc(-c3ccccc3)cc2)c2ccc(OCc3cccc(Cl)c3)cc21` was “inactive”.
Same read-out and setting: the value for `O=C1C(=O)N(Cc2ccc(-c3ccccc3)cc2)c2ccc(OCc3ccc(C(F)(F)F)cc3)cc21` was “inactive”.
Turning to `CCCCOc1ccc2c(c1)C(=O)C(=O)N2Cc1ccc(-c2ccccc2)cc1`, the outcome in test [1] was inactive.
Same read-out and setting: to `O=C1C(=O)N(Cc2ccc(-c3ccccc3)cc2)c2ccc(OCc3ccc(Cl)cc3)cc21` belongs “inactive”; to `O=C1C(=O)N(Cc2ccc(-c3ccccc3)cc2)c2ccc(OCc3ccc(F)cc3)cc21`, “inactive”; to `CCCOc1ccc2c(c1)C(=O)C(=O)N2Cc1ccc(-c2ccccc2)cc1`, “inactive”.
Same read-out and setting: to `Cc1ccccc1COc1ccc2c(c1)C(=O)C(=O)N2Cc1ccc(-c2ccccc2)cc1` belongs “inactive”; to `O=C1C(=O)N(Cc2ccc(-c3ccccc3)cc2)c2ccc(OCc3ccncc3)cc21`, “inactive”.
In the case of `O=C1C(=O)N(Cc2cccc(-c3ccccc3)c2)c2ccc(OC(F)(F)F)cc21`, the EC50 in test [2] was above 30 µM.
Consider `COc1ccccc1COc1ccc2c(c1)C(=O)C(=O)N2Cc1ccc(-c2ccccc2)cc1`, for which the outcome in test [1] was inactive.
Same read-out and setting: to `COc1ccc(COc2ccc3c(c2)C(=O)C(=O)N3Cc2ccc(-c3ccccc3)cc2)cc1C(F)(F)F` belongs “inactive”; to `O=C1C(=O)N(Cc2ccc(-c3ccccc3)cc2)c2ccc(OCc3ccccc3)cc21`, “inactive”.
For `O=C(O)COc1ccc2c(c1)C(=O)C(=O)N2Cc1ccc(-c2ccccc2)cc1`, the outcome in test [1] was inactive.
Still for that read-out and setting: to `O=C1C(=O)N(Cc2ccc(-c3ccccc3)cc2)c2ccc(OCc3ccc(OC(F)(F)F)cc3)cc21` belongs “inactive”; to `O=C1C(=O)N(Cc2ccc(-c3ccccc3)cc2)c2ccc(OCc3cc(F)ccc3F)cc21`, “inactive”.
For the compound `O=C1C(=O)N(Cc2ccc(-c3ccccc3)cc2)c2ccc(OCCc3ccccc3Cl)cc21`, the outcome in test [1] was inactive.
In the case of `O=C1C(=O)N(Cc2ccc(-c3ccccc3)cc2)c2ccc(OCc3c(F)cccc3F)cc21`, the outcome in test [1] was inactive.
As for `O=C1C(=O)N(Cc2ccc(-c3ccccc3)cc2)c2ccc(OCc3cccc(F)c3)cc21`, the outcome in test [1] was inactive.
On the same count and under the same terms, the value for `O=C1C(=O)N(Cc2ccc(-c3ccccc3)cc2)c2ccc(OCC3CCCCC3)cc21` was “inactive”.
For the compound `COc1ccc2c(c1)C(=O)C(=O)N2Cc1ccc(-c2ccccc2)cc1`, the outcome in test [1] was inactive.
Still for that read-out and setting: the value for `O=C1C(=O)N(Cc2ccc(-c3ccccc3)cc2)c2ccc(OCC3CCC3)cc21` was “inactive”.
Consider `O=C1C(=O)N(Cc2ccc(-c3cccnc3)cn2)c2ccc(OC(F)(F)F)cc21`, for which the EC50 in test [2] is above 30 µM.
With `O=C1C(=O)N(Cc2ccc(-c3ccccc3)cc2)c2ccc(OCc3cccc(OC(F)(F)F)c3)cc21`, the outcome in test [1] was inactive.
Same read-out and setting: the value for `O=C1C(=O)N(Cc2ccc(-c3ccccc3)cc2)c2ccc(OCc3ccccc3Cl)cc21` was “inactive”; that for `O=C1C(=O)N(Cc2ccc(-c3ccccc3)cc2)c2ccc(OCCN3CCCC3)cc21` was “inactive”.
Take `O=C1C(=O)N(Cc2ccc(-c3ccccc3)cc2)c2ccc(Oc3ncccn3)cc21`: the result in test [1] was inactive.
As to `O=C1C(=O)N(Cc2ccc(-c3ccccc3)cc2)c2ccc(OCc3cccnc3)cc21`, the result in test [1] was inactive.
Take `O=C1C(=O)N(Cc2ccc(-c3ccccc3)cc2)c2ccc(OCc3ccc(F)cc3F)cc21`: in test [1], the result was inactive.
Regarding `O=C1C(=O)N(Cc2ccc(-c3ccccc3)cc2)c2ccc(OCc3ccccc3C(F)(F)F)cc21`, the result in test [1] was inactive.
Turning to `O=C1C(=O)N(Cc2c(F)cc(-c3ccccc3)cc2F)c2ccc(OC(F)(F)F)cc21`, the 50% effective concentration (EC50) in test [2] was above 30 µM.
For the compound `COc1ccc(COc2ccc3c(c2)C(=O)C(=O)N3Cc2ccc(-c3ccccc3)cc2)cc1`, the outcome in test [1] was inactive.
